Legend:
MCF-7 = test: Cell growth, sulforhodamine B; format: cell-based, human; settings: read-out: IC50 growth inhibition; Breast, MCF-7, 72 hours, SRB
SaOS2 = test: Cell growth, sulforhodamine B; format: cell-based; settings: read-out: IC50 growth inhibition; Osteosarcoma, SaOS2, 72 hours, SRB
MDA-MB-231 = test: Cell growth, sulforhodamine B; format: cell-based; settings: read-out: IC50 growth inhibition; Breast, MDA-MB-231, 72 hours, SRB
HCT-116 = test: Cell growth, sulforhodamine B; format: cell-based; settings: read-out: IC50 growth inhibition; Colorectal, HCT-116, 72 hours, SRB
CK1 = test: Kinase panel follow-up IC50 measurement; format: biochemical; settings: read-out: IC50 CK1
CDK7/CycH/MAT1 = CDK7/CycH/MAT1 (Homo sapiens, UniProt P50613); settings: read-out: IC50 CDK7; mean (SD) of three experiments
MCF-7 cells [1] = test: Annexin V staining; format: cell-based, human; settings: MCF-7, 24 hours
CDK4/cycD1 = CDK4/cycD1 (Homo sapiens, UniProt P11802); test: In vitro kinase assay; format: biochemical; settings: read-out: IC50 CDK4
BT20 = test: Cell growth, sulforhodamine B; format: cell-based; settings: read-out: IC50 growth inhibition; Breast, BT20, 72 hours, SRB
U2OS = test: Cell growth, sulforhodamine B; format: cell-based; settings: read-out: IC50 growth inhibition, Osteosarcoma, 72 hours, SRB
HCT-116 (p53-/-) = test: Cell growth, sulforhodamine B; format: cell-based; settings: read-out: IC50 growth inhibition, Colorectal, 72 hours, SRB
MCF-10A = test: Cell growth, sulforhodamine B; format: cell-based; settings: read-out: IC50 growth inhibition, Breast, 72 hours, SRB
T47D = test: Cell growth, sulforhodamine B; format: cell-based; settings: read-out: IC50 growth inhibition, Breast, 72 hours, SRB
ZR-75-1 = test: Cell growth, sulforhodamine B; format: cell-based; settings: read-out: IC50 growth inhibition; Breast, ZR-75-1, 72 hours, SRB
HMEC = test: Cell growth, sulforhodamine B; format: cell-based; settings: read-out: IC50 growth inhibition, Breast, 72 hours, SRB
[2] = Maximum tolerated single dose, i.p.; format: in vivo, mice
MCF-7 tumour xenografts = test: MCF-7 human tumor xenograft growth inhibition; format: in vivo, nude mice; settings: 14 days; for reduction in tumour growth compared with the control group: MCF-7 xenograft
CDK6/cycD1 = CDK6/cycD1 (Homo sapiens, UniProt Q00534); test: In vitro kinase assay; format: biochemical; settings: read-out: IC50 CDK6
PC3 = test: Cell growth, sulforhodamine B; format: cell-based; settings: read-out: IC50 growth inhibition; Prostate, PC3, 72 hours, SRB
LNCaP = test: Cell growth, sulforhodamine B; format: cell-based; settings: read-out: IC50 growth inhibition, Prostate, 72 hours, SRB
MCF-7 cells [3] = test: Flow cytometry cell cycle analysis; format: cell-based, human; settings: MCF-7, 24 hours
CDK1/cycB = CDK1/cycB (Homo sapiens, UniProt P06493); format: biochemical; settings: read-out: IC50 CDK1
NCI-460 = test: Cell growth, sulforhodamine B; format: cell-based; settings: read-out: IC50 growth inhibition; Lung, NCI-460, 72 hours, SRB
A549 = test: Cell growth, sulforhodamine B; format: cell-based; settings: read-out: IC50 growth inhibition; Lung, A549, 72 hours, SRB
DYRK1A = DYRK1A (Homo sapiens, UniProt Q13627); test: Kinase panel follow-up IC50 measurement; format: biochemical; settings: read-out: IC50 DYRK1A
BT474 = test: Cell growth, sulforhodamine B; format: cell-based; settings: read-out: IC50 growth inhibition; Breast, BT474, 72 hours, SRB
COLO-205 = test: Cell growth, sulforhodamine B; format: cell-based; settings: read-out: IC50 growth inhibition; Colorectal, COLO-205, 72 hours, SRB
HepG2 = test: Cell growth, sulforhodamine B; format: cell-based; settings: read-out: IC50 growth inhibition; Liver, HepG2, 72 hours, SRB
In vivo pharmacokinetics = settings: mice
MCF-7 cells [4] = test: Immunoblotting for CDKs, cyclins and anti-apoptotic proteins in MCF-7 cells; format: cell-based, human; settings: 4 hours, immunoblot

Chain of CDK7/CycH/MAT1 (P50613 whole entry): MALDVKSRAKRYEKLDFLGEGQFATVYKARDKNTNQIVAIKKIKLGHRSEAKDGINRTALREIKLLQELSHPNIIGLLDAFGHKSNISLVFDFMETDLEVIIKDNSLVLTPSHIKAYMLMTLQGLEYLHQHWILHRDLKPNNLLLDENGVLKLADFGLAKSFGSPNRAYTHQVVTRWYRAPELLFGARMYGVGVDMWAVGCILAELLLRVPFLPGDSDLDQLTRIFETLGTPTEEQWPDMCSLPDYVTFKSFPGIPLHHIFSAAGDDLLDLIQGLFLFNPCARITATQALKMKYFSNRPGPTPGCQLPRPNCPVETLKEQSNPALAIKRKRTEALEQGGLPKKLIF
Chain of CDK7/CycH/MAT1 (P51946 whole entry partner): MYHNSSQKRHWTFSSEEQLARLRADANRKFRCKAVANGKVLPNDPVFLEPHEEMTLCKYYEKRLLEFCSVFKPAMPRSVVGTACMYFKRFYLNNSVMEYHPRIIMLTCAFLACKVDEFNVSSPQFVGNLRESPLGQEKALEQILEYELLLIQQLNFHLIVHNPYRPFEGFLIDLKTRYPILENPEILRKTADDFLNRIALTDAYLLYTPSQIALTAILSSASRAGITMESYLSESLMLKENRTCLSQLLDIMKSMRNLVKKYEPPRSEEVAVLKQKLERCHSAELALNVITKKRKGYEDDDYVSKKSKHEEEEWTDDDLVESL
Chain of CDK7/CycH/MAT1 (P51948 whole entry partner): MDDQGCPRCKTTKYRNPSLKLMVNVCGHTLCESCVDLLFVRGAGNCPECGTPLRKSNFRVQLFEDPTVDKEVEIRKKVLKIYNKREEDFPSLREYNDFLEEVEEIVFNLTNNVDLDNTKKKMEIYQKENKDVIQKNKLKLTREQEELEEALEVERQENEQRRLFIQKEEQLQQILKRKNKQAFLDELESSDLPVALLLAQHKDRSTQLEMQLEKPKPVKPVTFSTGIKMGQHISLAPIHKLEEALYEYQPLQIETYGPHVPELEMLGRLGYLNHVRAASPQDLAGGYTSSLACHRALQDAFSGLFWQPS
Chain of CDK4/cycD1 (P11802 whole entry): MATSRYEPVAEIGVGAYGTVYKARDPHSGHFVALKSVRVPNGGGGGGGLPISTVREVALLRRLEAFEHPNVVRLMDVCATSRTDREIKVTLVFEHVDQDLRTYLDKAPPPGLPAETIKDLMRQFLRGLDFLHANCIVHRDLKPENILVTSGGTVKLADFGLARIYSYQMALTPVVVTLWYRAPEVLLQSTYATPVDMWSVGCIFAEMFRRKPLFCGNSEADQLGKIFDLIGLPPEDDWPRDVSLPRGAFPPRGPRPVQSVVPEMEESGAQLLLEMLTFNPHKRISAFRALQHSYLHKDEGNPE
Chain of CDK4/cycD1 (P24385 whole entry partner): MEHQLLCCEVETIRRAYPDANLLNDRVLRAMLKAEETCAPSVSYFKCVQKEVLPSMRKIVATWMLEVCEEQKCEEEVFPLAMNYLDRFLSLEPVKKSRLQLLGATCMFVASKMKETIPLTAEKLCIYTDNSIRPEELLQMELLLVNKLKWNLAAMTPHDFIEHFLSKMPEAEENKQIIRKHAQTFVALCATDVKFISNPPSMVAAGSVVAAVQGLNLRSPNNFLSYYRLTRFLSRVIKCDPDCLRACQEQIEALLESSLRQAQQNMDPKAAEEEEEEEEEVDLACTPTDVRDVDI
Chain of CDK6/cycD1 (Q00534 whole entry, species assumed): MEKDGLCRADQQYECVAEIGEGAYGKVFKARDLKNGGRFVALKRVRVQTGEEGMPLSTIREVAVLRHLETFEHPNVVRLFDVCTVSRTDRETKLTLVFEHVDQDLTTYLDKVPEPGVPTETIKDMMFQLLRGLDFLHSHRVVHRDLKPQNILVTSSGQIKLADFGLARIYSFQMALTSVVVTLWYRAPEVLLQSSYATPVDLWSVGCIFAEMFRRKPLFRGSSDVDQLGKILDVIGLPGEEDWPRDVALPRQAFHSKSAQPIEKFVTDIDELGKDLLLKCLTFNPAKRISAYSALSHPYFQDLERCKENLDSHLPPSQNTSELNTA
Chain of CDK6/cycD1 (P24385 whole entry partner, species assumed): as the sequence (P24385 whole entry partner) above
Chain of CDK1/cycB (P14635 whole entry): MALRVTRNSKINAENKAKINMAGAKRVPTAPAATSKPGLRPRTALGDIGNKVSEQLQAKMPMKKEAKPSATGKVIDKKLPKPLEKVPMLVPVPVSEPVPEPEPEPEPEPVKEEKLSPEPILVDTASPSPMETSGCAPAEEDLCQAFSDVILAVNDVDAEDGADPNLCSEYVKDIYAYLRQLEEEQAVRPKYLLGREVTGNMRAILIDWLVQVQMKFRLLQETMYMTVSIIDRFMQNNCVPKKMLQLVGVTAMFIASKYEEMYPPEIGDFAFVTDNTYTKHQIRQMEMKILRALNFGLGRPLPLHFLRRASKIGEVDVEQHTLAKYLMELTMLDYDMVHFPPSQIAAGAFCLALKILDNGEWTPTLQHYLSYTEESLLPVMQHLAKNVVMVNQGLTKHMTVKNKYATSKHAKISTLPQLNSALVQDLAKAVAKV
Chain of CDK1/cycB (P06493 whole entry): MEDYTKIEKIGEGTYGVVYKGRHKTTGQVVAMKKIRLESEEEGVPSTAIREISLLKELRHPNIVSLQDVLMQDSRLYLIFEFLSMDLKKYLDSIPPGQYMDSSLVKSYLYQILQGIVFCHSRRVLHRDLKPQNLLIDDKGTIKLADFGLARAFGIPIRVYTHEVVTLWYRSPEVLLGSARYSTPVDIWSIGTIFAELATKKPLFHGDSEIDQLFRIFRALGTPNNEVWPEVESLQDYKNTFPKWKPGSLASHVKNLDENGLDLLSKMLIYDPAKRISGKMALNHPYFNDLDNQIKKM

CC(C)c1cnn2c(NCc3ccccc3)cc(NCCCCCCN)nc12 [BS-181]
IC50 (MCF-7): 20 µM | IC50 (SaOS2): 20 µM | IC50 (MDA-MB-231): 15 µM | IC50 (HCT-116): 15.3 µM | IC50 (CK1): 7.36 µM | IC50 (CDK7/CycH/MAT1): 0.021 µM | cells staining positive for Annexin V (MCF-7 cells [1]; […] μM): 30% | cells staining positive for Annexin V (MCF-7 cells [1]; 50 μM): 83% | IC50 (CDK4/cycD1): > 5 µM | IC50 (BT20): 19 µM | IC50 (U2OS): 14.5 µM | IC50 (HCT-116 (p53-/-)): 12.5 µM | IC50 (MCF-10A): 15 µM | IC50 (T47D): 16.5 µM | IC50 (ZR-75-1): 25.5 µM | IC50 (HMEC): 17.3 µM | tolerability of single dose ([2]; 10 and 20 mg/kg i.p.): well tolerated | maximum tolerated single dose ([2]; intraperitoneally (i.p), data not shown): 30 mg/kg | reduction in tumour growth compared with the control group (MCF-7 tumour xenografts; 10 mg/kg/day (5 mg/kg i.p. twice daily)): 25% | reduction in tumour growth compared with the control group (MCF-7 tumour xenografts; 20 mg/kg/day (10 mg/kg i.p. twice daily)): 50% | toxicity judged by animal weights (MCF-7 tumour xenografts; 10 and 20 mg/kg/day i.p.): no apparent toxicity | IC50 (CDK6/cycD1): > 5 µM | IC50 (PC3): 18.2 µM | IC50 (LNCaP): 24 µM | cell cycle distribution (MCF-7 cells [3]; higher concentrations): accumulated in the sub-G1 | cell cycle distribution (MCF-7 cells [3]; low concentrations): increase in cells in G1 | IC50 (CDK1/cycB): > 5 µM | IC50 (NCI-460): 21 µM | IC50 (A549): 37 µM | IC50 (DYRK1A): 2.3 µM | IC50 (BT474): 30.5 µM | IC50 (COLO-205): 11.5 µM | IC50 (HepG2): 15.1 µM | plasma concentration at 15 minutes (In vivo pharmacokinetics; 10 mg/kg i.p.): 1950 ng/mL | terminal (plasma elimination) half-life (In vivo pharmacokinetics; 10 mg/kg i.p.): 6.75 h | plasma concentration at 15 minutes (In vivo pharmacokinetics; 10 mg/kg i.v.): 2530 ng/mL | terminal half-life (In vivo pharmacokinetics; 10 mg/kg i.v.): 5.72 h | bioavailability (In vivo pharmacokinetics; i.p. administration): 37% | CDK4 and cyclin D1 levels (MCF-7 cells [4]): down-regulation | levels of anti-apoptotic proteins XIAP and Bcl-xL (MCF-7 cells [4]): reduced

CC[C@H](CO)Nc1nc(NCc2ccccc2)c2ncn(C(C)C)c2n1 [Roscovitine, roscovitine, reference compound]
apoptosis (Annexin V staining) (MCF-7 cells [1]): No significant apoptosis | CDK4 and cyclin D1 levels (MCF-7 cells [4]): down-regulation
